Here are results for three molecules from publication PMC9401491, “The Novel Nucleoside Analogue ProTide NUC-7738 Overcomes Cancer Resistance Mechanisms In Vitro and in a First-In-Human Phase I Clinical Trial” (Clinical Cancer Research, 2021).

Where two headings read alike, the source gives them in different places.

For series [1], the system named is HAP1 cells. Put plainly: MTT cell viability, HAP1 cells. The series is classed as cell-based. Particulars: Homo sapiens. As for the experimental part: (§1) Cells (10^4) were seeded into 96-well plates and then treated with NUC-7738 (lot 5132/E00393/119) or 3′-dA (cordycepin, catalog no. C3394, lot 067M4182, Sigma) for 48 hours. One and a half milligrams per milliliter MTT (catalog no. M6494, Invitrogen) in a 1:1 ratio was added to cell culture media. After a 2-hour incubation at 37°C, media was removed and 70 μl of isopropanol was added. Optical densities at 570 nm were measured using POLARstar Omega plate reader. Readouts were normalized and IC50 values were calculated using a nonlinear regression model in Graphpad prism (v8.3.0). Each biological replicate (at least 3) was performed in 4 technical replicates to calculate the average IC50 value. To measure apoptosis, the Guava NexinReagent (Luminex Corp.) was used following manufacturer's instructions. Fluorescence staining was measured with an automated 96-well Guava easyCyte Flow Cytometer (Luminex Corp.).

For the next series, the system named is AGS. Put plainly: MTT cell viability, AGS. In kind it is cell-based. Particulars: Homo sapiens, 48 hours, mean (±SEM), read-out: IC50. As for the experimental part:
as §1

The next series concerns A498. Kind of series: MTT cell viability, A498. In kind it is cell-based. Particulars: Homo sapiens; A498, 48 hours; mean (±SEM); read-out: IC50. Here is the method:
as §1

In a further series the test system is ACHN. Put plainly: MTT cell viability, ACHN. The following applies: Homo sapiens, 48 hours, mean (±SEM), read-out: IC50. In kind it is cell-based. As for the experimental part:
as §1

The subject of another series is CAKI-1. Kind of series: MTT cell viability, CAKI-1. The following applies: Homo sapiens; CAKI-1, 48 hours; mean (±SEM); read-out: IC50. The series is classed as cell-based. As for the experimental part: as §1
The subject of the next series is NCI-786. Put plainly: MTT cell viability, NCI-786. In kind it is cell-based. The following applies: NCI-786, 48 hours; mean (±SEM); read-out: IC50. As for the experimental part:
as §1

The next series concerns UO-31. Put plainly: MTT cell viability, UO-31. In kind it is cell-based. The following applies: Homo sapiens; UO-31, 48 hours; mean (±SEM); read-out: IC50. As for the experimental part:
as §1

The next series has as its system 501MEL. Kind of series: MTT cell viability, 501MEL. The following applies: 501MEL, 48 hours; mean (±SEM); read-out: IC50. In kind it is cell-based. As for the experimental part: as §1
The test system of a further series is Tera-1. Put plainly: MTT cell viability, Tera-1. In kind it is cell-based. The following applies: Tera-1, 48 hours; mean (±SEM); read-out: IC50. Here is the method:
as §1

The next series relates to SK-OV3. Put plainly: MTT cell viability, SK-OV3. The series is classed as cell-based. Particulars: Homo sapiens, SK-OV-3; SK-OV3, 48 hours; 2 biological replicates; read-out: IC50. Here is the method: as §1
In a further series the test system is cancer cell lines. Kind of series: IC50 across a wide set of cancer cell lines. The series is classed as cell-based. Particulars: mean across a wide set of cancer cell lines; read-out: mean IC50. As for the experimental part:
as §1

Series [2] relates to HAP1 cells. Kind of series: HAP1 viability with ADA, hENT1 or ADK inhibitors. In kind it is cell-based, human. The following applies: HAP1, EHNA, NBTI, A134974. Here is the method:
as §1
To assess whether NUC-7738 was resistant to ADA and could bypass ADK and hENT1 (SLC29A1), cell viability was measured after treatment with their specific and corresponding protein inhibitors: erythro-9-(2-Hydroxy-3-nonyl) adenine hydrochloride (EHNA), A134974, and S-(4-nitrobenzyl)-6-thioinosine (NBTI), respectively ([16, 17, 34, 35]).

Series [3] relates to Gastric or cervical cancer cells. Kind of series: Apoptosis by cleaved PARP Western blot. In kind it is cell-based. Particulars: 50 and 100 μmol/L, 24 hours. Here is the method:
as §1
Cells were harvested and lyzed using RIPA lysis and extraction buffer (Thermo Scientific) following manufacturer's protocol. Twenty to 30 μg of total protein lysates was loaded on Mini-PROTEAN TGX precast gels (Bio-Rad). Separated proteins were transferred to a polyvinylidene difluoride (PVDF) membrane using Trans-Blot Turbo Transfer System (Bio-Rad) followed by incubation with primary and horseradish peroxidase (HRP)–conjugated secondary antibodies [anti-mouse, catalog no. […]
A general note: A western blot detects proteins with antibodies after separation by electrophoresis.

The subject of series [4] is NUDT2 knockout HAP1 cells. Kind of series: Sensitivity of NUDT2 CRISPR/Cas9 knockout HAP1 cells. The series is classed as cell-based, human. Particulars: HAP1 NUDT2 knockout vs wildtype. Here is the method:
Cells were transfected with stealth siRNA (catalog no. HSS104782, catalog no. HSS104784, catalog no. HSS179235; ThermoFisher) targeting HINT-1 using Lipofectamine RNAiMAX (Invitrogen) following the manufacturer's protocol. At 48 hours posttransfection, cells were treated and cell viability was measured 96 hours posttransfection as described above. Samples for Western blot analysis were harvested 48 hours posttransfection. For gene-depletion experiments, approximately 4 × 10^5 HAP1 cells were seeded per well in a 6-well plate and grown to approximately 50% confluency. After 24 hours, cells were transfected with lentiCRISPR v2 plasmid (GenScript) containing a guide RNA (gRNA) targeting gene of interest using Turbofectin (catalog no. TF81001, OriGene) according to manufacturer's instruction. The following sequences were used: HINT-1 CRISPR gRNA 2 ([…]) and NUDT2 CRISPR gRNA 2 ([…]). At 24 hours posttransfection, positively transfected cells were selected using […] puromycin for 72 hours. After selection, surviving colonies were expanded and used for downstream analysis. For clonal selection, clones were selected using limited dilution and expanded into a 6-well plate for Western blot screening.

Details of series [5]: method as in PMID 20302371. Particulars: cited from earlier work.
The nature of series [6]: Beagle dog 4-week toxicology and toxicokinetics.
The nature of series [7]: NuTide:701 first-in-human phase I study. The series is classed as in vivo. Particulars: human, in vivo. As for the experimental part: A Safety Study of NUC-7738 in Patients with Advanced Solid Tumours or Lymphoma, ClinicalTrials number: NCT03829254. Approved by Oxford C Ethics Committee ref 18/SC/0628.
This study is currently ongoing at three centers in the United Kingdom: Edinburgh, Newcastle, and Oxford. As of June 1, 2021, 28 patients with advanced cancers have been enrolled and received escalating doses of 14–900 mg/m^2 (intravenous infusion from 30–120 minutes) once weekly until dose-limiting toxicity or disease progression occurs. Intrapatient dose escalation ensures those starting at lower dose levels of NUC-7738 are continuously moved to higher doses once safety has been established. The most common cancers to be included are immunotherapy-resistant melanoma (n = 8), colorectal cancer (n = 3), and gastric and lung cancer (n = 2 each). […] A posttreatment biopsy was taken from a patient with melanoma and compared with their archived specimen collected prior to enrolling in the clinical trial. […] Transcriptional profiling of the specimens using RNA-seq identified more than 1,069 genes which were at least 2-fold differentially expressed after treatment with NUC-7738 (Fig. 6C and Supplementary Fig. S6A–C).

[8] abbreviates: all doses, both occasions and genders.

With `Nc1ncnc2c1ncn2[C@@H]1O[C@H](CO)C[C@H]1O` [3′-dA, 3′-deoxyadenosine, reference compound], the IC50 in the series on HAP1 cells [1] (HAP1, 48 hours, MTT, mean (±SEM) of 4 biological replicates, read-out: IC50) came to 49.9 µM; in the series on HAP1 cells [1] (HAP1, as stated in RNA-seq method, read-out: IC50 concentration used for RNA-seq), 46 µM; with AGS, 460 µM; with A498, 479 µM; in the series on ACHN, 393 µM; in the series on CAKI-1, 291 µM. The IC50 with NCI-786 was found to be 181 µM; in the series with UO-31, 385 µM; in the series with 501MEL it was 137 µM; with Tera-1 it was 200 µM; with SK-OV3 it was 360 µM; with cancer cell lines it was 138 µM. Besides, the IC90 turned out to be 151 µM in the series with HAP1 cells [1] (HAP1, 48 hours, MTT, mean (±SEM) of 4 biological replicates, read-out: IC90) and 375 µM in the series on HAP1 cells [1] (HAP1, as stated in RNA-seq method, read-out: IC90 concentration used for RNA-seq). Also, the “potency upon inhibition of ADA, hENT1 or ADK” value in the series on HAP1 cells [2] is “dependent on ADA, hENT1, and ADK”. Also, in series [3], the “apoptotic cell death, cleaved PARP-1” value is listed as “induced apoptotic cell death”. Further, the “resistance after NUDT2 deletion” value in series [4] was “Specific resistance”. Moreover, the half-life in plasma in series [5] is 1.6 min.

One may read the Tmax as the time at which the peak concentration occurs. Turning to `O=c1[nH]cnc2c1ncn2[C@@H]1O[C@H](CO)C[C@H]1O` [3′-deoxyinosine], in [6] (setting [8]), the “mean ratio metabolite/parent, AUC 0-t” value is recorded as 1.32 and the “mean ratio metabolite/parent, Cmax” value worked out at 0.42. Besides, the Tmax in series [6] (both, beagle, plasma, iv) worked out at 15 min.

With `Nc1ncnc2c1ncn2[C@@H]1O[C@H](COP(=O)(O)OP(=O)(O)OP(=O)(O)O)C[C@H]1O` [3′-dATP, 3′-dA-5′-triphosphate], the intracellular half-life result in series [7] is “approximately 50 h”.
